The subject of one data set is HSV-1. In words: Plaque assay of HSV-1-infected SH-SY5Y-tau-P301S control and MIF-knockdown cells. The data set is classed as cell-based, HSV-1 KOS strain. Here is the method: Virus titer determination was carried out in 25-cm^2 flasks or 6-well plates with confluent Vero cells. The virus stock was serially diluted in Medium 199. 1 mL of each of the dilutions was added to the Vero cells in duplicates and incubated for 2h. Then the inoculum was aspirated and DMEM supplemented with 5% NBCS and 7.5 μg/mL human immunoglobulin (Sigma) was added. After two days the cells were washed twice with PBS and fixed with MeOH for 5 min at RT. Then 1:10 diluted KaryoMax Giemsa stain solution (Gibco) was added to the cells and incubated for 20 min at RT. Following washing with water the plaques were counted under the microscope and the titer was calculated.
4x10^5 Vero cells, 8x10^5 SH-SY5Y or 2x10^6 differentiated LUHMES (differentiation day 6) cells were seeded into 12-well plates. After 24h the cells were treated with compounds (as indicated in the figures) and after 1h they were infected with HSV-1 applying MOIs as described in the figures. After 20h (or at indicated time points) cells were either washed twice with PBS, then lysed in cold PBS/1% NP40 including the cOmplete EDTA-free protease inhibitor cocktail (Roche) and phosphatase inhibitor cocktail (Sigma) or virus was released by freeze-thawing and ultrasonic treatment for analysis in viral plaque assay (see above).
[…] Two-wa y ANOVA (Sidak´s post-hoc) […]

The subject of data set [1] is tau phosphorylation and aggregation. Nature of the data set: Treatment of tgTau58/2 mice, tau phosphorylation and sarkosyl-insoluble tau in brain. The data set is classed as in vivo. The note with it: tau58/2 mice. The text has this: TgTau58/2 mice[44] that express the human 0N4R tau isoform with the P301Smutation under control of the mouse Thy1.2 promoter were a kind gift from Novartis (Boston, USA). Experimental animals were two months old, male, and heterozygous for the transgene. Wildtype littermates on C57BL/6J background served as control. The mice were maintained in pathogen-free conditions in the Animal Facility at the University of Düsseldorf, Germany, fed ad libitum with standard laboratory chow and water in ventilated cages under a 12h light/dark cycle. All experiments were in conformity with the Animal Protection Law approved by local authorities (LANUV NRW, Recklinghausen, Germany).
TgTau58/2 mice[44] were a kind gift from Novartis (Boston, USA). Two months-old males, heterozygous for the tau-P301S transgene (n = 12 per group), were either treated with 10% DMSO or 5 mg/kg body weight compound PAV-617 for four weeks administering 100 μL volumes intraperitoneally three times a week, after which animals were perfused with PBS and terminated. The brains were extracted cut into two-halves and flash frozen in liquid N2. One brain halve was homogenized in cold extraction buffer (10 mM Tris pH7.4, 1mM EGTA, 0.8M NaCl, 10% sucrose, 1x Protease inhibitor cocktail, 1x phosphatase inhibitor cocktail 2) to 10%. For screening 1% NP40, 0.1mg/mL DNAseI and 5 mM MgSO4 were added to the homogenates and after 30 min incubation on ice the protein concentration was determined using the DC Protein Assay Kit (Bio-Rad). Equal amounts of protein were then either directly used for detection of tau in the whole homogenate by immunoblot or sarkosyl insoluble tau was precipitated following a protocol of.[93] 750 μg lysate were centrifuged at 6,000g for 20 min at 4°C. Then the supernatant was carefully taken and sarkosyl was added to 1% end concentration. After an incubation for 1h at RT the samples were spun down at 100,000g for 1h at 4°C. The supernatants were removed and the pellets carefully washed with 200 μL extraction buffer without sucrose. […]

From paper PMC12866179, “Oxidized MIF is an Alzheimer’s disease drug target relaying external risk factors to tau pathology” (Cell Reports Medicine, 2025) come the findings set out here.

In the case of `CCc1cc(N2CCCC2)cc2[s+]c3cc(N4CCCC4)cc(C)c3nc12.[I-]` [PAV-174, 3,7-Di(pyrrolidine-1-yl) 1-ethyl-9-methyl-phenothiazin-5-ium iodide], the “HSV-1 titer-lowering effect in MIF-knockdown cells” value in the data set with HSV-1 is on record as “did not exert comparable titer-lowering effects”.
Take `[I-].c1cc2nc3ccc(N4CCCC4)cc3[s+]c2cc1N1CCCC1` [PAV-617, 3,7-Di(pyrrolidine-1-yl)phenothiazine-5-ium iodide]: in data set [1] (5 mg/kg), the “phosphorylated tau (AT8) in brain homogenates” value was “reduced” and the “phosphorylated tau (PHF-1) in the sarkosyl-insoluble fraction” value was “Significantly less”. Besides, the “HT7-normalized phosphorylated tau (PHF-1) in brain homogenates” value in data set [1] (5 mg/kg i.p. three times a week for four weeks) is “reduced”.
